Patent US9512169B2, “3-substituted estra-1,3,5(10),16-tetraene derivatives, methods for the production thereof, pharmaceutical preparations containing same, and use thereof for the production of medicaments” (BAYER PHARMA AKTIENGESELLSCHAFT, priority 2012, dated 2016)
Where “and” joins values, the source holds several entries; their conditions need not be identical. Equal entries are not always repeated.

Experiments:
[1] = molecular target: T1, AKR1C3 (Homo sapiens (Human), UniProt P42330); assay: AKR1C3 binding by isothermal titration calorimetry; parameters: exothermal binding enthalpy: unit not given here; conditions: ITC, 25° C., PBS buffer
T1 sequence (P42330 whole entry): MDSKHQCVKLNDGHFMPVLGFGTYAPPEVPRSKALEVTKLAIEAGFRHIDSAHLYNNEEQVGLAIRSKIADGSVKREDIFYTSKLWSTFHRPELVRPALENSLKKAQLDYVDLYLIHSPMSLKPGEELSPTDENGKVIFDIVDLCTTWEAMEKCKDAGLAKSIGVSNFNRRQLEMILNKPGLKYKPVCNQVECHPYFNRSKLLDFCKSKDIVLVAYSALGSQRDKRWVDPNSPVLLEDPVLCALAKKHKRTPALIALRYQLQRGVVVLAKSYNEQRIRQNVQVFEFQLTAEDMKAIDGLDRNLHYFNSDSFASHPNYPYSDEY
Procedure: Binding of Example compound 1 to the AKR1C3 enzyme was measured by isothermal titration calorimetry. The degree of affinity of a given compound can be stated using the dissociation constant (KD value). Human AKR1C3 enzyme was prepared as described in Example 20. For ITC experiments, human AKR1C3 protein was transferred by gel permeation into a PBS buffer consisting of 137 mM NaCl, 2.7 mM KCl, 10 mM Na2HPO4, 2 mM KH2PO4 and 1 mM tris(2-carboxyethyl)phosphine hydrochloride. The compounds were dissolved in 100% DMSO at a concentration of 10 mM and then diluted with PBS buffer. Isothermal titration calorimetry experiments (ITC experiments) were carried out using an ITC200 titration calorimeter (GE Healthcare, Northampton, Mass., USA) at a temperature of 25° C. The change in enthalpy resulting from the injection of the protein was determined by integration of the calorimetric signal. The data were analyzed with Origin 7.0 (GE Healthcare, Northampton, Mass., USA). Heat of dilution values were determined using the last injection of the titration in question and subtracted prior to curve fitting. The protein concentration in the injection syringe was in the range from 80 to 120 μM, and the concentration of the compound to be measured was in the range from 5 to 20 μM.

[2] = molecular target: T1, AKR1C3; assay: AKR1C3 enzyme inhibition assay (Coumberone to Coumberol fluorescence); format: biochemical; conditions: recombinant human AKR1C3, 15 min pre-incubation, 90 min at 22° C.; repeated lines = two experimental determinations
Procedure: The AKR1C3-inhibitory activity of the substances of the present invention was measured in the AKR1C3 assay described in the paragraphs below.
Essentially, the enzyme activity is measured by quantification of the Coumberol from Coumberone (Halim, M., Yee, D. J., and Sames, D., J. AM. CHEM. SOC. 130, 14123-14128 (2008) and Yee, D. J., Balsanek, V., Bauman, D. R., Penning, T. M., and Sames, D., Proc. Natl. Acad. Sci. USA 103, 13304-13309 (2006)). In this test, the increase of the highly fluorescent Coumberol by NADPH- (nicotinamide adenine dinucleotide phosphate)-dependent reduction of the non-fluorescent Coumberone by AKR1C3 can be determined.
The enzyme used was recombinant human AKR1C3 (Aldo-keto reductase family 1 member C3) (GenBank Accession No. NM_003739). This was expressed in E. coli as GST (glutathione S transferase) fusion protein and purified by glutathione Sepharose affinity chromatography. The GST was removed by digestion with thrombin and subsequent size exclusion chromatography (Dufort, I., Rheault, P., Huang, X F., Soucy, P., and Luu-The, V., Endocrinology 140, 568-574 (1999)).
For the assay, 50 nl of a 100-fold concentrated solution of the test substance in DMSO were pipetted into a black low-volume 384-well microtiter plate (Greiner Bio-One, Frickenhausen, Germany), 2.0 μl of a solution of AKR1C3 in assay buffer [50 mM potassium phosphate buffer pH 7, 1 mM DTT, 0.0022% (w/v) Pluronic F-127, 0.01% BSA (w/v) and protease inhibitor cocktail (Complete, EDTA-free Protease Inhibitor Cocktail from Roche)] were added and the mixture was incubated for 15 min to allow pre-binding of the substances to the enzyme prior to the enzyme reaction. The enzyme reaction was then started by addition of 3 μl of a solution of NADPH (16.7 μM→final concentration in 5 μl of assay volume is 10 μM) and Coumberone (0.5 μM→final concentration in 5 μl of assay volume is 0.3 μM) in assay buffer, and the resulting mixture was incubated at 22° C. for the reaction time of 90 min. The concentration of the AKR1C3 was adapted to the respective activity of the enzyme preparation and adjusted such that the assay was carried out in the linear range. Typical concentrations were in the region of 1 nM. The reaction was stopped by addition of 5 μl of a stop solution consisting of the inhibitor EM-1404 [F. Labrie et al. U.S. Pat. No. 6,541,463, 2003] (2 μM→final concentration in […] is 1 μM). The fluorescence of the Coumberole was then measured at 520 nm (excitation at 380 nm) using a suitable measuring instrument (Pherastar from BMG Labtechnologies). The intensity of the fluorescence was used as a measure of the amount of Coumberole formed and thus of the enzyme activity of AKR1C3. The data were normalized (enzyme reaction without inhibitor=0% inhibition; all other assay components, but no enzyme=100% inhibition).
As described, the pharmacological substances claimed were examined for their inhibitory activity on the AKR1C3 enzyme (see Table 1). The compounds claimed show a strong inhibition of AKR1C3 in vitro (IC50 values <200 nM) and in most cases even IC50 values <50 nM.

[3] = molecular target: T1, AKR1C3; assay: AKR1C3 inhibition in a cell-based system (HEK293 cells transfected with AKR1C3 expression plasmid, coumberol fluorescence); conditions: HEK293 cells transfected with AKR1C3, incubation overnight; repeated lines = independent determinations; read-out: Cellular AKR1C3 inhibition IC50
Procedure: The inhibition of AKR1C3 by the substances described in the present invention was measured in a cell-based assay using […] as substrate for the AKR1C3 (Halim, M., Yee, D. J., and Sames, D., J. AM. CHEM. SOC. 130, 14123-14128 (2008) and Yee, D. J., Balsanek, V., Bauman, D. R., Penning, T. M., and Sames, D., Proc. Natl. Acad. Sci. USA 103, 13304-13309 (2006)) (cf. Example 20).
The cell system used were HEK293 cells (ATCC, USA) (cell culture medium: DMEM, 1.5 g glucose, 10% FCS, PSG). The cells were transfected in an AKR1C3 expression plasmid (pCMV6-AC-AKR1C3, GenBank Accession No. NM_003739.4) overnight (X-tremeGENE HP, Roche). The next morning, the cells were sown in black 96well cell culture plates at a cell density of 40000 cells/well (Greiner Bio-One, Frickenhausen, Germany). After 7 h, the cells were incubated with the test substances (dissolved in 100× concentration in DMSO, final concentration between 10^−11M and 10^−5M) and […] (dissolved in cell culture medium, final concentration 5×10^−6M) overnight. The next morning, the fluorescence of coumberol was measured at 535 nm (excitation at 355 nm) using a suitable measuring instrument (Mithras, from Berthold). The fluorescence intensity was used as a measure of the amount of coumberol formed and thus of the enzyme activity of AKR1C3. The data were normalized (transfected cells without inhibitor, only DMSO=0% inhibition; transfected cells, 10 μM inhibitor EM-1404 [F. Labrie et al. U.S. Pat. No. 6,541,463, 2003]=100% inhibition), and the IC50 values were calculated using a 4-parameter fit.
In the cell-based assay described above, the pharmacological substances claimed were examined for their inhibitory activity on the AKR1C3 enzyme (see Table 2).

C[C@]12CC[C@@H]3c4ccc(CCC(=O)O)cc4CC[C@H]3[C@@H]1CC=C2c1cncc(F)c1 [Example 1, 3-[17-(5-Fluoropyridin-3-yl)estra-1,3,5(10),16-tetraen-3-yl]propanoic acid]
exothermal binding enthalpy [1]: −1500
Kd ([1]; read-out: KD value (dissociation constant)): 0.23 µM
IC50 [2]: 0.008 µM and 0.0076 µM
IC50 [3]: 0.04 µM and 0.052 µM and 0.157 µM
